According to patent publication US20060241178A1, “Compositions and methods for treating lung cancer” (priority 2002, published 2006):

Experiments:
[1] = system: alveolar epithelium cells of lung; assay: In situ end-labeling (ISEL/TUNEL) of apoptosis in lung sections; assay type: in vivo, A/J mice
A549/c-jun cells = assay: Apoptosis in A549/c-jun transfectants (morphology, DNA fragmentation, annexin V, PARP Western blot); assay type: cell-based, human; conditions: 25 μM
[2] = system: AP-1 binding activity in A549 cells; assay: EMSA of AP-1 binding activity in A549 cells; assay type: cell-based, human
Method: (§1) Cell Lines: The human lung adenocarcinoma cell line A549 was obtained from the American Type Culture Collection (ATCC) (Bethesda, Md.). […] Cells were grown at 37° C. with 5% CO2.
(§2) Reagents: The PEITC was obtained from Aldrich (Milwaukee, Wis.) and its N-acetylcysteine conjugate was synthesized in house by the Organic Synthesis Facility using the method described previously (Kassahun et al., Chem Res Toxicol 1997, 10(11):1228-33). Unless specified otherwise, the A549 cells were treated with 10 or 25 μM of PEITC-NAC. TPA (12-O-tetradecanoylphorbol-13-acetate) was purchased from Sigma (St. Louis, Mo.).
Electrophoretic Mobility Shift Assay (EMSA): Double-stranded oligonucleotides containing the consensus-binding site for AP-1 were purchased commercially (Santa Cruz Biotech). The oligos were labeled with γ-^32P-ATP (6000 Ci/mmol, Armeshem Pharmacia Biotech. Inc Piscataway, N.J.) using polynucleotide kinase (Promega, Madison, Wis.) according to standard procedures. The labeled DNA was incubated with 5 μg of total proteins (as specified in the Results section) for 10 min at room temperature, in the presence of 1 μg of poly d(I)-d(C) oligomer (Roche Molecular Biochemicals, Indianapolis, Ind.) and DNA-binding buffer as described previously (Yang et al., Cell Growth Differ 1993, 4(7):595-602). The complexes were then separated on a 7.5% polyacrylamide gel and autoradiographed.
Proteins Isolation: Cells were incubated in a 37° C. with 5% CO2, followed by mock or treatments specified in the results section. Total proteins were then isolated using RIPA buffer. The protease inhibitors aprotinin (1 μg/ml), leupeptin (1 μg/ml), pepstatin (1 μg/ml), phenylmethylsulfonyl fluoride (0.1 mM) and the phosphatase inhibitor Na3VO4 (1 mM), NaF (1 mM) were added to all buffers. The protein concentrations were determined using the Coomassie Plus Protein Assay Reagent (Pierce, Rockford, Ill.), and aliquots of the proteins were stored at −80° C.

[3] = system: A549/control-vector cells; assay: Apoptosis in A549/control-vector transfectants (morphology, DNA fragmentation, annexin V, PARP Western blot); assay type: cell-based, human; conditions: 25 μM
A549 cells [4] = assay: Flow cytometry cell cycle analysis / survival of A549 cells; assay type: cell-based, human
Method: as §1, §2
Cell cycle analysis: A549 cells were harvested following 16 and 24 h treatment with various concentrations of PEITC-NAC by fixation in 70% ethanol. Cellular DNA was determined following staining with 1 μg/ml of 4,6-diamidino-2-ephynylindole (DAPI, Molecular Probes, Eugene, Oreg.) dissolved in PBS. Cellular blue fluorescence was measured using the Elite ESP flow cytometer/cell sorter (Coulter, Miami, Fla.) following excitation with a Ni/Cad UV light emitting laser. The data were collected and DNA histograms were deconvoluted using Multicycle software (Phoenix Flow Systems, San Diego, Calif.).

JNK 1 and 2 = assay: Western blot of lung total proteins: JNK phosphorylation; assay type: in vivo, A/J mice; conditions: lung tissue 21 days after B(a)P
p53 = assay: Western blot of lung proteins: p53 expression and phosphorylation; assay type: in vivo, A/J mice; conditions: lungs at termination of the bioassay
[5] = Stability of conjugates in AIN-76A diet (methanol extraction, HPLC); assay type: physicochemical; conditions: stored at 4° C. under nitrogen
Method: The ITC conjugates were incorporated (15 μmol/g diet) into AIN-76A diets (5% corn oil) by mixing with dextrose prior to diet preparation. […] After mixing with dextrose, the solvent was removed using a rotary evaporator and further dried using a vacuum pump (2-3 h). Diets were prepared in 1-2 kg batches, and were stored at 4° C. in a container purged with nitrogen. […] Stability was determined by extraction of 0.5 g portions of the diet with 2.5 ml methanol (2×). The methanol extracts were combined and a 1 ml aliquot was filtered using a 0.47 μm syringe filter.

A549 cells [6] = assay: Cell cycle phase-specific DNA strand breaks (TUNEL) in A549 cells; assay type: cell-based, human
Method: Detection of cell cycle phase-specific DNA strand breaks (“TUNEL”): A549 cells were fixed with 1% formaldehyde for 15 min and then permabilized by post-fixation in 70% ethanol. The presence of in situ DNA strand breaks, a characteristic feature of apoptosis was detected by labeling them with a fluorochrome-conjugated nucleotide in the reaction catalyzed by the terminal deoxynucleotidyl transferase; cellular DNA was counterstained with DAPI. The kit provided by Phoenix Flow Systems (San Diego, Calif.) was used in this assay. This method is also described in detail elsewhere (Gorczyca et al., Internat J. Oncol. 1992, 1:639-648). Green and red fluorescence of cells probed for DNA strand breaks and DNA content was measured using a FACScan flow cytometer (Becton Dickinson, San Jose, Calif.) with standard settings of green (strand breaks) and red (DNA) fluorescence detection. To calculate the percentage of apoptotic cells in respective phases of cell cycle, DNA content frequency histograms were deconvoluted using CELLQuest software.
Apoptosis induced by PEITC-NAC occurs predominantly in dividing cells. […] DNA strand breaks during apoptosis was detected by end-labeling, which was combined with analysis of the cellular DNA content. […]

A549 cells [7] = assay: Apoptosis in A549 cells treated with TPA, PEITC-NAC or TPA plus PEITC-NAC (photography, DAPI staining); assay type: cell-based, human; conditions: TPA 100 nM 12 h prior, then PEITC-NAC 24 h
Source text: Assay for single cell DNA strand breaks: A549 cells treated with or without TPA, PEITC-NAC or TPA plus PEITC-NAC were collected at the times specified in the text, cytocentrifuged and stained with 4′-6′diamidino-2-phenylindole (DAPI). The photographs were taken using an Olympus AX 70 microscope (Melville, N.Y.) with fluorescence and SPOT RT Slider digital image system (Diagnostic Instruments Inc., Sterling Heights, Mich.). Arrows indicated the typical apoptotic features of DNA strand breakage and nuclear fragmentation.
TPA (100 nM) was added to A549 cells 12 h prior to addition of PEITC-NAC, which was added 24 h before photography of cells, protein isolation, or DAPI staining. […] These cells were treated identically, but were stained with the DNA fluorochrome DAPI.

CC(=O)N[C@@H](CSC(=S)NCCc1ccccc1)C(=O)O [PEITC-NAC, N-acetylcysteine Conjugate of phenethyl isothiocyanate]
increase in apoptosis, non-tumorous lung tissue ([1]; after 140 days): 2.3 fold | apoptotic index, fold elevation ([1]; lung tissue at 84 days, before tumors appeared): approximately 2 fold | PARP 89 kD cleavage fragment (A549/c-jun cells; 3 h): the most evident cleavage | PARP protein (A549/c-jun cells; 24 h): maintained a significant levels of intact PARP protein | apoptosis compared with control-vector transfected cells (A549/c-jun cells; 24 h): enhanced apoptosis | earliest appearance of AP-1 activation ([2]; 10 μM): 30 min | concentration of peak AP-1 binding activity ([2]; 24 h treatment): 10 µM | lowest concentration stimulating AP-1 activation ([2]; 24 h treatment): 1 µM | PARP 89 kD cleavage fragment ([3]; 3 h): a very light 89 kD cleavage fragment | PARP protein ([3]; 24 h): maintained a significant levels of intact PARP protein | cell survival (morphology, DNA fragmentation) ([3]; 24 h): the majority of control-vector transfectants were still alive | cells undergoing apoptosis (sub-G1 peak) (A549 cells [4]; 10 μM for 24 h): 4.5% | cell survival (A549 cells [4]; 100 μM, 24 h): no lung cells appear to survive | JNK 1 (p46) phosphorylation level (JNK 1 and 2): increase | JNK 2 (p54) phosphorylation (JNK 1 and 2): only slightly induced | phosphorylation of p53 at Ser15 (p53): stronger increase | stability in diet [5]: stable for at least one month | cell cycle distribution (A549 cells [6]; 25 μM, 16 h): a substantial portion of the cells accumulate in G2M phase | apoptotic cells by DNA strand break labeling (A549 cells [6]; 50 μM, 24 h): a distinct population of apoptotic cells | incidence of apoptosis in TPA-pretreated cells compared with PEITC-NAC alone (A549 cells [7]): a much higher incidence of apoptosis
